Measured values reported in US20080254462A1, “ALTERED ZDHHC8 EXPRESSION AS A MARKER OF INCREASED RISK OF SCHIZOPHRENIA” (priority 2005, published 2008).

Tests used:
[1] = tested on: homozygous Zdhhc8 mutant mice and wild-type littermate controls; test: Locomotor activating effects of MK801 in the open field; assay type: in vivo
Procedure: Open field assay. Animals were not pre-exposed to the chamber before testing. Activity was monitored in a clear acrylic chamber directly illuminated and equipped with infrared sensors for the automatic recording of horizontal and vertical activity (Colbourn Instruments). Each animal was placed initially in the periphery of the chamber, and recordings of the total distance traveled, the number of rearings (vertical moves) and the number of entries in the centerfield over the next 15 min were used as a measure of a locomotor response to novelty. 47 female mice (17 homozygous Zdhhc8 mutant, 17 heterozygous Zdhhc8 mutant and 13 wild-type littermate controls) and 45 male mice (13 homozygous Zdhhc8 mutant, 19 heterozygous Zdhhc8 mutant and 13 wild-type littermate controls) were tested.
Drug administration. MK801 was purchased from Sigma. Each experimental group consisted of 8-10 mice, which received the same number of injections, administered intraperitoneally, of either drug (0.4 mg per kg body weight) or vehicle. After 30 minutes of prehabituation in the open field, the mice were removed, injected and then left to rest for 10 minutes in their home cage before returning them to the open field arena, where they were monitored for an additional 30 minutes. […]

[2] = tested on: PSD95 (Post-Synaptic Density-95)

Compound	Sensitivity to MK801-induced stimulation of locomotor activity (ratio of activity after injection to activity before injection) ([1]; homozygous Zdhhc8 mutant female mice vs wild-type littermate controls, 0.4 mg per kg intraperitoneally, P=0.05, not in males)	Locomotor stimulation after MK801 injection ([1]; open field, 0.4 mg per kg body weight intraperitoneally, 30 minutes before and 30 minutes after injection, both genotypes, females and males)	metabolic labeling assay (palmitoylation of PSD95) [2]
C[C@]12N[C@H](Cc3ccccc31)c1ccccc12 [MK801, dizocilpine]	somewhat less sensitive to MK801-induced stimulation of locomotor activity than wild-type littermate controls	Locomotor stimulation after MK801 injection was observed in both genotypes in both females (E) and males (F)	
ZDHHC8 mutant "230" (lacks the entire C-terminal domain)			this form shows no essentially no activity when compared with vector-only control
